Source: patent US5362856A, “Monooxygenase-like activity of heme proteins” (University of Toronto Innovations Foundation, priority 1993, dated 1994)

B1: catalase: enzyme added to test whether peroxide is involved in the hydroxylation (protein, UniProt P00432 2-527, looked up)
Catalase: ADNRDPASDQMKHWKEQRAAQKPDVLTTGGGNPVGDKLNSLTVGPRGPLLVQDVVFTDEMAHFDRERIPERVVHAKGAGAFGYFEVTHDITRYSKAKVFEHIGKRTPIAVRFSTVAGESGSADTVRDPRGFAVKFYTEDGNWDLVGNNTPIFFIRDALLFPSFIHSQKRNPQTHLKDPDMVWDFWSLRPESLHQVSFLFSDRGIPDGHRHMNGYGSHTFKLVNANGEAVYCKFHYKTDQGIKNLSVEDAARLAHEDPDYGLRDLFNAIATGNYPSWTLYIQVMTFSEAEIFPFNPFDLTKVWPHGDYPLIPVGKLVLNRNPVNYFAEVEQLAFDPSNMPPGIEPSPDKMLQGRLFAYPDTHRHRLGPNYLQIPVNCPYRARVANYQRDGPMCMMDNQGGAPNYYPNSFSAPEHQPSALEHRTHFSGDVQRFNSANDDNVTQVRTFYLKVLNEEQRKRLCENIAGHLKDAQLFIQKKAVKNFSDVHPEYGSRIQALLDKYNEEKPKNAVHTYVQHGSHLSAREKANL
B2: myoglobin (protein, UniProt P68082 2-154, looked up)
Myoglobin: GLSDGEWQQVLNVWGKVEADIAGHGQEVLIRLFTGHPETLEKFDKFKHLKTEAEMKASEDLKKHGTVVLTALGGILKKKGHHEAELKPLAQSHATKHKIPIKYLEFISDAIIHVLHSKHPGDFGADAQGAMTKALELFRNDIAAKYKELGFQG
notes: myoglobin Mb, MW18800, from Sigma, used in place of Mt

Tests used:
hemoglobin-Fe(II) = test: Effect of added agents on the sulfite/heme protein catalysed hydroxylation; assay type: biochemical; conditions: agents in reasonable quantities
[1] = 1 uM methemoglobin, 2.0 Mm anisole, 0.6 mM sodium sulfite, pH 7.0, 37 degrees C
Method: The cleavage of anisole is a more demanding test of monooxygenase activity--see Galaris et. al., Arch. Biochem. Biophys., 1990, 281, 163 n., and Lindsay Smith et.al., J. Chem. Soc. Chem. Commun., 1982, 55. […] The reaction mixtures were preincubated for 5 mins at 37 degrees C. and then terminated by addition of ice-cold 20% trichloroacetic acid (for formaldehyde determination), or by addition of ice-cold diethyl ether and subsequent extraction with diethyl ether (for GC detection of the product phenol).

[2] = Aniline p-hydroxylation catalysed by myoglobin with sodium sulfite; assay type: biochemical; conditions: 0.1 mL of 6 mM sodium sulphite, otherwise as Example 1
Method: An experiment was conducted exactly as described above in connection with Example 1, but using myoglobin Mb, 28 mg, MW18800, from Sigma, in place of Mt, and an amount of 0.1 mL of 6 mM sodium sulphite. Otherwise conditions and quantities were the same.

Row | Molecule | effect on the catalytic hydroxylation process (hemoglobin-Fe(II)) | also measured
1 | [C-]#[O+] [carbon monoxide] | inhibited | –
2 | C[S+](C)[O-] [dimethylsulfoxide] | not subject to inhibition | –
3 | CCO [ethanol] | not subject to inhibition | –
4 | OC[C@@H](O)[C@@H](O)[C@H](O)[C@H](O)CO [mannitol] | not subject to inhibition | –
5 | methemoglobin | – | kinetics of hydroxylation with respect to aniline (constant sodium sulfite concentration, 37 degrees C, pH 7.0): follows Michaelis-Menten kinetics; kinetic mechanism on variation of sodium sulfite concentration (sodium sulfite 0.05-0.40 mM, Lineweaver-Burk plots (FIG. 2)): ping-pong mechanism; production of phenol and formaldehyde from anisole [1]: 140 pmol/min
6 | superoxide dismutase: enzyme added to test whether superoxide is involved in the hydroxylation | no effect | –
7 | B1 | no effect | –
8 | B2 | – | monooxygenase activity (aniline to p-aminophenol) compared with Mt of Example 1 [2]: essentially similar result
